Experimental data published in patent US11083714B2, “Selective anti-cancer agent effective for prevention and treatment” (Molecular International Research, Inc., priority 2018, dated 2021).
Like-named read-outs stand apart in the source and are kept apart here.

Tests used:
[1] = format: in vivo; conditions: 100, 150 and 200 mg/kg, groups of two, 48 hr observation
Description: A study with synthetic compounds 13-7-2 (flavopereirine) and 13-9-1 (de-ethylflavopereirine) was conducted to compare the toxicity of the two compounds in animals. The compounds were dissolved in phosphate buffered saline for administration. Both compounds were injected IP in male immunodeficient (homozygous recessive scid/scid, beige/beige) mice.
Compound 13-7-2 was injected at a dose of 100 mg/kg, 150 mg/kg, and 200 mg/kg in mice divided in groups of two. […] One mouse injected with 150 mg/kg died at 6 hr whereas one mouse injected with 200 mg/kg dose died at 24 hr. One mouse injected with 100 mg/kg dose died at 48 hr.
Compound 13-9-1 was injected at a dose of 100 mg/kg, 150 mg/kg, and 200 mg/kg in mice divided in groups of two.

HT-29 = assay: Viability of bioluminescent HT-29 colon cancer cells; format: cell-based, human; conditions: HT-29, luminescence
Source text: FIG. 10. Dose-response curve for human colon cancer cell line HT-29 exposed to either de-ethylflavopereirine (squares) or Pao pereira plant extract (triangles) containing flavopereirine and at least one other anti-cancer compound, dihydroflavopereirine. The bioluminescent HT-29 cell line was used.
A bioluminescent line was used enabling viability to be assessed by luminescence. In this case, the activity of compound 13-9-1 was compared with a Pao pereira extract containing flavopereirine and at least one other anti-cancer compound.

[2] = Plasma concentrations after intravenous or oral administration; format: in vivo, mice
Description: FIG. 15. Plasma concentrations of de-ethylflavopereirine following intravenous or oral administration: intravenous at 20 mg/kg (lozenges) having a peak at approximately 2 hours, oral at 100 mg/kg (squares), or oral at 200 mg/kg (triangles) having a peak at approximately 4 hours.
Oral administration was chosen for the mouse experiments because administration is simplified by avoiding the need for tail vein injections.

**Q.** Which “deaths after IP injection” value [1] does the source give for `c1ccc2c(c1)[nH]c1c2cc[n+]2ccccc12` [Compound 13-9-1, 12H-indolo[2,3-a]quinolizin-5-ium] here?
**A.** The value was “None of the mice injected with compound 13-9-1 died”.

**Q.** And the “deaths after IP injection” value ([1]; listed as de-ethylflavopereirine)?
**A.** The value was “no mice injected IP with de-ethylflavopereirine died”.

**Q.** And the “activity compared with Pao pereira extract” value (HT-29)?
**A.** The value was “active at much lower concentrations than the plant extract”.

**Q.** What about the “time of peak plasma concentration” value ([2]; intravenous at 20 mg/kg) of the same molecule?
**A.** Its value is “approximately 2 hours”.

**Q.** What about the “time of peak plasma concentration” value ([2]; oral at 200 mg/kg (sentence also lists oral at 100 mg/kg)) of the same molecule?
**A.** Its value is “approximately 4 hours”.
